Measurements: patent US12558302B2, “Tyrosinase-inhibiting molecules and dermopharmaceutical composition that includes them” (MESOESTETIC PHARMA GROUP, S.L, priority 2021, dated 2026)
Several values for one entry are separate records, joined by “and”; a condition that tells them apart may be missing. Equal entries are not always repeated.

Columns and labels:
[1] = water solubility compared to DMSO by HPLC; format: physicochemical; details: 50 mg/ml; for Percentage of water solubility compared to the samples dissolved in DMSO: 1 hour stirring at room temperature, filtered, HPLC
Procedure: Solutions are prepared in DMSO and in water for each of the molecules. All the samples are prepared at a final concentration of 50 mg/ml. After stirring for 1 hour at room temperature, the samples are filtered and a HPLC is performed.
In order to calculate the percentage of solubility of each of the molecules, the area of the peak of the sample dissolved in water and in DMSO obtained by HPLC is determined. The results are given as a percentage of solubility of the compound dissolved in water in the compound dissolved in DMSO.

tyrosinase = target: T1, tyrosinase (Homo sapiens, UniProt P14679); assay: tyrosinase activity in lysate of L-tyrosine-stimulated human melanocytes (L-DOPA/MBTH); format: biochemical; details: L-tyrosine-stimulated control = 100%
T1 construct: the cells were trypsinised and lysated in PBS pH 7.0 with 1% Triton X-100; host or cells: human melanocytes (primary), stimulated with 2 mM L-tyrosine; Triton X-100 lysate
T1 sequence (P14679 19-529): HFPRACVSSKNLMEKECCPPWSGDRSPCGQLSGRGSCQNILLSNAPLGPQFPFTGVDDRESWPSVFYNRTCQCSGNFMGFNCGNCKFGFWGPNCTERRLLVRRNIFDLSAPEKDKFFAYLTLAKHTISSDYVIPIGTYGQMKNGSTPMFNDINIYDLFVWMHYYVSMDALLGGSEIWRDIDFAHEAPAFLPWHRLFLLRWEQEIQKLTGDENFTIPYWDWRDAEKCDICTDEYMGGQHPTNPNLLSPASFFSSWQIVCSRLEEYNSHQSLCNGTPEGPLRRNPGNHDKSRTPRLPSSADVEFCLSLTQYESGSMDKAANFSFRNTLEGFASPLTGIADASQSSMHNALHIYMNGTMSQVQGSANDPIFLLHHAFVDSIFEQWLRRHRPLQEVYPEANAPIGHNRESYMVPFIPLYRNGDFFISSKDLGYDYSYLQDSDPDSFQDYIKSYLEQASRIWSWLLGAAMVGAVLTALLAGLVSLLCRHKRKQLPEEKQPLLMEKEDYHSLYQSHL
Procedure: Given the results, an in vitro assay was conducted on human melanocytes. In order to stimulate melanogenic activity in the cells they were treated with L-tyrosine. This compound, in addition to being a substrate of the tyrosinase enzyme, key to melanin synthesis, is capable of activating cell receptors that activate the melanogenesis-regulating signalling pathways (Slominski A, et al. L-tyrosine and L-dihydroxyphenylalanine as hormone-like regulators of melanocyte functions. Pigment Cell Melanoma Res. 2012; 25(1):14-27). This condition is aimed at stimulating melanogenesis in melanocytes for the purpose of extracting tyrosinase and testing the effect of the molecules of the invention.
Thus, human melanocytes were cultured in culture medium (#PCS-200-013, ATCC) and L-tyrosine (2 mM) for 3 days. After the stimulation treatment, the cells were trypsinised and lysated in PBS pH 7.0 with 1% Triton X-100. The cell lysate, which contains tyrosinase, was incubated together with the molecules of the invention at different concentrations (0.1 and 1 mM), L-DOPA and MBTH (Winder A J and Harris H. New assays for the tyrosine hydroxylase and dopa oxidase activities of tyrosinase. Eur. J. Biochem. 1991; 198(2):317-26). L-DOPA acts as a substrate for tyrosinase in the enzyme reaction and MBTH is a compound that bonds to the […] formed from the oxidation of L-DOPA, generating a colour complex. Each of the conditions used was prepared in triplicate. Lastly, absorbance at 492 nm was monitored using a spectrophotometer every 10 min for 2-5 h.

human melanocytes = assay: melanin content in L-tyrosine-stimulated human melanocytes; format: cell-based; details: 3 days, L-tyrosine 2 mM, stimulated control = 100%
Procedure: (§1) With the aim of studying the inhibition of molecules in melanin, an in vitro assay was conducted on human melanocytes using similar conditions to those described in the tyrosinase inhibition assay. L-tyrosine is used to stimulate melanogenic activity in cells with the aim of extracting the melanin. Here, only the molecules with the best tyrosinase-inhibiting activity were tested (formulas (II) and (III)). In this experiment, the concentration of molecules used is the highest possible taking into account the melanocyte cytotoxicity value, 1.25 mM for the molecule of formula (II) and 0.33 mM for the molecule of formula (III).
Thus, human melanocytes are cultured in culture medium (#PCS-200-013, ATCC). L-tyrosine (2 mM) was added together with the molecule treatment. All the conditions were prepared in triplicate. After incubating the cells with the treatments for 3 days, they were trypsinised and lysated in 1M NaOH. Cell lysate absorbance at 340 nm was measured using a spectrophotometer. The absorbance value is directly proportional to melanin content.

melanocyte = melanocyte cytotoxicity; format: cell-based; details: human melanocytes
Procedure: as §1

## O=C(/C=C/c1ccc(O)c(S(=O)(=O)O)c1)c1ccc(O)c(S(=O)(=O)O)c1 [II, 5-[(E)-2-(4-hydroxy-3-sulfobenzoyl)-1-ethenyl]-2-hydroxybenzenesulfonic Acid]
[1]
  water solubility (in words): highly soluble
  Percentage of water solubility compared to the samples dissolved in DMSO: 81%
tyrosinase; 0.1 mM
  Percentage of tyrosinase activity: 97% and 97 ± 0%
tyrosinase; 1 mM
  Percentage of tyrosinase activity: 55% and 55 ± 1%
Human melanocytes; 1.25 mM
  melanin content: 78±7%
melanocyte
  highest possible concentration taking into account the melanocyte cytotoxicity value: 1.25 mM

## O=C(/C=C/c1ccc(O)cc1)c1ccc(O)c(S(=O)(=O)O)c1 [III, 5-[(E)-3-(p-hydroxyphenyl)acryloyl]-2-hydroxybenzenesulfonic Acid]
[1]
  water solubility (in words): highly soluble
  Percentage of water solubility compared to the samples dissolved in DMSO: 84%
tyrosinase; 0.1 mM
  Percentage of tyrosinase activity: 82% and 82 ± 2%
tyrosinase; 1 mM
  Percentage of tyrosinase activity: 44% and 44 ± 1%
Human melanocytes; 0.33 mM
  melanin content: 49±7%
melanocyte
  highest possible concentration taking into account the melanocyte cytotoxicity value: 0.33 mM

## O=C(/C=C/c1ccc(O)c(S(=O)(=O)[O-])c1)c1ccc(O)c(S(=O)(=O)[O-])c1.[K+].[K+] [IV M = K, 5-[(E)-2-(4-hydroxy-3-sulfonatebenzoyl)-1-ethenyl]-2-hydroxybenzenesulfonate, Dipotassium Salt]
[1]
  Percentage of water solubility compared to the samples dissolved in DMSO: 100%
tyrosinase; 0.1 mM
  Percentage of tyrosinase activity: >97%
tyrosinase; 1 mM
  Percentage of tyrosinase activity: 97 ± 1%

## O=C(/C=C/c1ccc(O)cc1)c1ccc(O)cc1 [Reference molecule, (E)-1,3-bis(p-hydroxyphenyl)-2-propen-1-one, reference compound]
[1]
  water solubility (in words): fully water soluble
  Percentage of water solubility compared to the samples dissolved in DMSO: 0%
tyrosinase; 0.1 mM
  Percentage of tyrosinase activity: 97 ± 3%
tyrosinase; 1 mM
  Percentage of tyrosinase activity: 84 ± 4%

## CCN(CC)CC.O=C(/C=C/c1ccc(O)cc1)c1ccc(O)c(S(=O)(=O)O)c1 [V M = (C2H5)3N, 5-[(E)-3-(p-hydroxyphenyl)acryloyl]-2-triethylammonium hydroxybenzenesulfonate]
[1]
  Percentage of water solubility compared to the samples dissolved in DMSO: 100%
tyrosinase; 0.1 mM
  Percentage of tyrosinase activity: >97%
tyrosinase; 1 mM
  Percentage of tyrosinase activity: 83 ± 0%

## O=C(/C=C/c1ccc(O)cc1)c1ccc(O)c(S(=O)(=O)[O-])c1.[Na+] [V M = Na, 5-[(E)-3-(p-hydroxyphenyl)acryloyl]-2-sodium Hydroxybenzenesulfonate]
[1]
  Percentage of water solubility compared to the samples dissolved in DMSO: 100%
tyrosinase; 0.1 mM
  Percentage of tyrosinase activity: >97%
tyrosinase; 1 mM
  Percentage of tyrosinase activity: 82 ± 3%

## O=C(CCc1ccc(O)c(S(=O)(=O)[O-])c1)c1ccc(O)c(S(=O)(=O)[O-])c1.[K+].[K+] [VI M = K, 2-hydroxy-5-[2-(4-hydroxy-3-sulfonatebenzoyl)ethyl]-benzenesulfonate, Dipotassium Salt]
[1]
  Percentage of water solubility compared to the samples dissolved in DMSO: 100%
tyrosinase; 0.1 mM
  Percentage of tyrosinase activity: >97%
tyrosinase; 1 mM
  Percentage of tyrosinase activity: 91 ± 3%
